The text below walks through data of patent publication US20260217767A1, “NOVEL A4B7 THIOETHER PEPTIDE DIMER ANTAGONISTS” (Protagonist Therapeutics, Inc., priority 2014, published 2026).

The target of series [1] is T1, rh integrin α4β7 (Homo sapiens, UniProt P13612+P26010).
T1 construct: purchased R&D Systems 5397-A30
T1 sequence (P13612 34-977 limits assumed): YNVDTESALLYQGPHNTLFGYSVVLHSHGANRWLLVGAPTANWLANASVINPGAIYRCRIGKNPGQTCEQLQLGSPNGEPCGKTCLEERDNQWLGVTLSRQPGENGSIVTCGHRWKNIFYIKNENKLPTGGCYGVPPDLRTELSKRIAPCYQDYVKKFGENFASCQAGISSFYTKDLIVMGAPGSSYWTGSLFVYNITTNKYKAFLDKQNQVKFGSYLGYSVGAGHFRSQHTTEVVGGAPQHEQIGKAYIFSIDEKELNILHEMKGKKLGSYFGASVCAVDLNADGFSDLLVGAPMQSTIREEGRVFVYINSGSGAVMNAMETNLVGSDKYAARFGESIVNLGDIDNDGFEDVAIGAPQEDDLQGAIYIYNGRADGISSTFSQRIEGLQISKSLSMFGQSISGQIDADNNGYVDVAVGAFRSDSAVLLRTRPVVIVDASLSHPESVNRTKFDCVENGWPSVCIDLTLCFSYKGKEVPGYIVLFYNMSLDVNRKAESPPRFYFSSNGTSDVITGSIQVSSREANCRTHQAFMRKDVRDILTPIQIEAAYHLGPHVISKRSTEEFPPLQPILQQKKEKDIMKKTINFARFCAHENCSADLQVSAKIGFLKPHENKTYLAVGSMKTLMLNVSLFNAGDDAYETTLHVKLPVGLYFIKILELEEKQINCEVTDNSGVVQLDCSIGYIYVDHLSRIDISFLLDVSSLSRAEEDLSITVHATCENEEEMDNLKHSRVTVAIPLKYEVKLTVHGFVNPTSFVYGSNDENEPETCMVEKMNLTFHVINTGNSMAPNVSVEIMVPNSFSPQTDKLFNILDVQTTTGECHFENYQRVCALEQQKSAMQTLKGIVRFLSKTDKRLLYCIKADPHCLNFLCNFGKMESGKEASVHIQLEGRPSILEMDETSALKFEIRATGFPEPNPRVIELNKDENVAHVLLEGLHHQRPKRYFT
T1 sequence (P26010 20-723 limits assumed): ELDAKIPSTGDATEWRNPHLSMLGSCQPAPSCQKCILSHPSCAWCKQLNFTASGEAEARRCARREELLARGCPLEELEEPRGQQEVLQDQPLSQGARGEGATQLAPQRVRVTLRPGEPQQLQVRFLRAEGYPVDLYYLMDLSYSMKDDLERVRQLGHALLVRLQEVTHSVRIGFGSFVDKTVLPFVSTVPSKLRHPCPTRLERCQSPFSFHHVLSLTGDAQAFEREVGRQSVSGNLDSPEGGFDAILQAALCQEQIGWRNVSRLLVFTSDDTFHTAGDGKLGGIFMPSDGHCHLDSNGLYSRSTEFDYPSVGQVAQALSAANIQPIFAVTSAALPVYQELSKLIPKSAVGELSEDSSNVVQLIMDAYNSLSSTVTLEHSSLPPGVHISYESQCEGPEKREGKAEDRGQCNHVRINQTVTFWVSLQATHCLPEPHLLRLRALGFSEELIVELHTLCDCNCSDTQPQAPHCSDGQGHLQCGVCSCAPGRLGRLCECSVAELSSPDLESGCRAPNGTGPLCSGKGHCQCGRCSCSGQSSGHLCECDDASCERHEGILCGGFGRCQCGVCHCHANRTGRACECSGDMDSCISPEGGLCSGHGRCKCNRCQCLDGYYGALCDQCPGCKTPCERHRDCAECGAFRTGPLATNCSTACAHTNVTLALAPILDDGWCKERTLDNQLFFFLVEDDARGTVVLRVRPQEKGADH
The series is described as follows: α4β7-MAdCAM Competition ELISA. The series is classed as binding. The note with it: thioether monomer peptides, Table 6; read-out: ELISA A4B7. Here is the method: α4β7-MAdCAM Competition ELISA A nickel coated plate (Pierce #15442) was coated with rh integrin α4β[…] Systems #5397-A30) at 800 ng/well and incubated at room temperature with shaking for 1 hr. The solution was then removed by shaking and blocked with assay buffer (50 mM Tris-HCl pH7.6, 150 mM NaCl, 1 mM MnCl2 or MgCl2, 0.05% Tween-20 and 0.5% BSA) at 250 ul/well. The plate was then incubated at room temperature for 1 hr. Each well was washed 3 times with wash buffer (50 mM Tris-HCl pH7.6, 100 mM NaCl, 1 mM MnCl2 or MgCl2, 0.05% Tween-20). To each well was added 25 ul of a serial dilution (3-fold dilutions in assay buffer) of peptides starting at 20 μM. 25 ul of recombinant human MAdCAM-1 (R&D Systems #6056-MC) was then added to each well at a fixed concentration 20 nM. The final starting peptide concentration was 10 μM, and the final MAdCAM-1 concentration was 10 nM. The plates were then incubated at room temperature for 1 hr to reach binding equilibrium. The wells were then washed three times with wash buffer. 50 ul of mouse anti-human IgG1-HRP (Invitrogen #A10648) diluted in 1:2000 in assay buffer was then added to each well. The wells were incubated at room temperature for 45 min with shaking. The wells were then washed 3 times with wash buffer. 100 ul of TMB were then added to each well and closely observe during development time. The reaction was stopped with 2N H2SO4 and absorbance was read at 450 nm.
A general note: An ELISA detects its analyte on a solid surface through an enzyme-linked reagent.

Series [2] in a line: Simulated Intestinal Fluid (SIF) Stability Assay. The series is classed as in vitro ADME. The settings on record: pig, 37° C., monomers, Table 6; for half-life at 22 μM: simulated intestinal fluid (SIF) with 1% porcine pancreatin, pH 6.5, porcine pancreatin; for half-life: porcine pancreatin. In outline: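 Peptide at 22 μM final was incubated at 37° C in blank FaSSIF pH 6.5 with 1% porcine pancreatin. Timed samples were quenched in acetonitrile/methanol/formic acid with internal standard and analysed by LC-MS/MS. Half-lives came from first-order exponential fits of percent remaining.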

Where a SMILES comes first, the peptide text is derived from it.

Take `CC(C)C[C@@H]1NC(=O)[C@H]([C@@H](C)O)NC(=O)[C@H](CC(=O)O)NC(=O)[C@H](CO)NC(=O)[C@H](CCCNC(=N)N)N(C)C(=O)c2ccccc2CSC(C)(C)[C@@H](C(=O)N[C@@H](Cc2ccc3ccccc3c2)C(=O)N[C@@H](CCC(=O)O)CC(=O)N[C@H](CCCCN)C(N)=O)NC1=O` [compound 70]: the IC50 in series [1] is less than 25 nM. The same compound yielded a half-life at 22 μM in series [2] of more than 3 h.
On the same counts, the results for `CC(C)C[C@@H]1NC(=O)[C@H]([C@@H](C)O)NC(=O)[C@H](CC(=O)O)NC(=O)[C@H](CO)NC(=O)[C@H](CCCNC(=N)N)N(C)C(=O)c2ccccc2CSC(C)(C)[C@@H](C(=O)N[C@H](Cc2ccccc2)C(=O)N[C@@H](Cc2ccc3ccccc3c2)C(=O)N[C@H](CCCCN)C(N)=O)NC1=O` [compound 71] (HELM PEPTIDE1{[meR].S.D.T.L.[Pen].[dF].[O=C([C@H](Cc1ccc2ccccc2c1)N[*:1])[*:2]].[dK].[am]}|CHEM1{[O=C(c1ccccc1C[*:2])[*:1]]}$PEPTIDE1,CHEM1,1:R1-1:R1|PEPTIDE1,CHEM1,6:R3-1:R2$$$V2.0) are 25 to 100 nM and more than 3 h.
As for `CC(C)C[C@@H]1NC(=O)[C@H]([C@@H](C)O)NC(=O)[C@H](CC(=O)O)NC(=O)[C@H](CO)NC(=O)[C@H](CCCNC(=N)N)N(C)C(=O)c2ccccc2CSC(C)(C)[C@@H](C(=O)N[C@H](Cc2ccccc2)C(=O)N[C@@H](CCC(=O)O)C(=O)N[C@H](CCCCN)C(N)=O)NC1=O` [compound 72] (HELM PEPTIDE1{[meR].S.D.T.L.[Pen].[dF].E.[dK].[am]}|CHEM1{[O=C(c1ccccc1C[*:2])[*:1]]}$PEPTIDE1,CHEM1,1:R1-1:R1|PEPTIDE1,CHEM1,6:R3-1:R2$$$V2.0), in series [1], the IC50 is less than 25 nM. For the same compound, the half-life at 22 μM in series [2] was more than 3 h.
On the same counts, the results for `CC(C)C[C@@H]1NC(=O)[C@H]([C@@H](C)O)NC(=O)[C@H](CC(=O)O)NC(=O)[C@H](CO)NC(=O)[C@H](CCCNC(=N)N)N(C)C(=O)c2ccccc2CSC(C)(C)[C@@H](C(=O)N[C@@H](Cc2ccccc2)C(=O)N[C@@H](CCC(=O)O)CC(=O)N[C@H](CCCCN)C(N)=O)NC1=O` [compound 73] (HELM PEPTIDE1{[meR].S.D.T.L.[Pen].F.[O=C(O)CC[C@@H](CC(=O)[*:2])N[*:1]].[dK].[am]}|CHEM1{[O=C(c1ccccc1C[*:2])[*:1]]}$PEPTIDE1,CHEM1,1:R1-1:R1|PEPTIDE1,CHEM1,6:R3-1:R2$$$V2.0) are less than 25 nM and more than 3 h.
On the same counts, the results for `CC(C)C[C@@H]1NC(=O)[C@H]([C@@H](C)O)NC(=O)[C@H](CC(=O)O)NC(=O)[C@H](CO)NC(=O)[C@H](CCCNC(=N)N)N(C)C(=O)c2ccccc2CSC(C)(C)[C@@H](C(=O)N[C@@H](Cc2ccc(O)cc2)C(=O)N[C@@H](CCC(=O)O)CC(=O)N[C@H](CCCCN)C(N)=O)NC1=O` [compound 74] (HELM PEPTIDE1{[meR].S.D.T.L.[Pen].Y.[O=C(O)CC[C@@H](CC(=O)[*:2])N[*:1]].[dK].[am]}|CHEM1{[O=C(c1ccccc1C[*:2])[*:1]]}$PEPTIDE1,CHEM1,1:R1-1:R1|PEPTIDE1,CHEM1,6:R3-1:R2$$$V2.0) are less than 25 nM and more than 3 h.
Regarding `CC(C)C[C@@H]1NC(=O)[C@H]([C@@H](C)O)NC(=O)[C@H](CC(=O)O)NC(=O)[C@H](CO)NC(=O)[C@H](CCCNC(=N)N)N(C)C(=O)c2ccccc2CSC(C)(C)[C@@H](C(=O)N[C@@H](Cc2ccc3ccccc3c2)C(=O)N[C@H](CCC(=O)O)C(=O)N[C@H](CCCCN)C(N)=O)NC1=O` [compound 75] (HELM PEPTIDE1{[meR].S.D.T.L.[Pen].[O=C([C@H](Cc1ccc2ccccc2c1)N[*:1])[*:2]].[dE].[dK].[am]}|CHEM1{[O=C(c1ccccc1C[*:2])[*:1]]}$PEPTIDE1,CHEM1,1:R1-1:R1|PEPTIDE1,CHEM1,6:R3-1:R2$$$V2.0), the IC50 in series [1] is less than 25 nM. For the same compound, the half-life at 22 μM in series [2] was more than 3 h.
On to `CC(C)C[C@@H]1NC(=O)[C@H]([C@@H](C)O)NC(=O)[C@H](CC(=O)O)NC(=O)[C@H](CO)NC(=O)[C@H](CCCNC(=N)N)N(C)C(=O)c2ccccc2CSC(C)(C)[C@@H](C(=O)N[C@@H](Cc2ccc(C(F)(F)F)cc2)C(=O)N[C@@H](CCC(=O)O)C(=O)N[C@H](CCCCN)C(N)=O)NC1=O` [compound 76] (HELM PEPTIDE1{[meR].S.D.T.L.[Pen].[O=C([C@H](Cc1ccc(C(F)(F)F)cc1)N[*:1])[*:2]].E.[dK].[am]}|CHEM1{[O=C(c1ccccc1C[*:2])[*:1]]}$PEPTIDE1,CHEM1,1:R1-1:R1|PEPTIDE1,CHEM1,6:R3-1:R2$$$V2.0), for which, in series [1], the IC50 is less than 25 nM. Moreover, the half-life in series [2] is more than 3 h.
For the compound `CC(C)C[C@@H]1NC(=O)[C@H]([C@@H](C)O)NC(=O)[C@H](CC(=O)O)NC(=O)[C@H](CO)NC(=O)[C@H](CCCNC(=N)N)N(C)C(=O)c2ccccc2CSC(C)(C)[C@@H](C(=O)N[C@@H](Cc2cccc3ccccc23)C(=O)N[C@@H](CCC(=O)O)C(=O)N[C@H](CCCCN)C(N)=O)NC1=O` [compound 77] (HELM PEPTIDE1{[meR].S.D.T.L.[Pen].[O=C([C@H](Cc1cccc2ccccc12)N[*:1])[*:2]].E.[dK].[am]}|CHEM1{[O=C(c1ccccc1C[*:2])[*:1]]}$PEPTIDE1,CHEM1,1:R1-1:R1|PEPTIDE1,CHEM1,6:R3-1:R2$$$V2.0), the IC50 in series [1] is less than 25 nM. For the same compound, the half-life in series [2] is 1.47 h.
With `CC(C)C[C@@H]1NC(=O)[C@H]([C@@H](C)O)NC(=O)[C@H](CC(=O)O)NC(=O)[C@H](CO)NC(=O)[C@H](CCCNC(=N)N)N(C)C(=O)c2ccccc2CSC(C)(C)[C@@H](C(=O)N[C@@H](Cc2ccc(O)cc2)C(=O)N[C@@H](CCC(=O)O)C(=O)N[C@H](CCCCN)C(N)=O)NC1=O` [compound 78] (HELM PEPTIDE1{[meR].S.D.T.L.[Pen].Y.E.[dK].[am]}|CHEM1{[O=C(c1ccccc1C[*:2])[*:1]]}$PEPTIDE1,CHEM1,1:R1-1:R1|PEPTIDE1,CHEM1,6:R3-1:R2$$$V2.0), the IC50 in series [1] is less than 25 nM. Besides, in series [2], the half-life at 22 μM is 1.3 h.

As usually defined, the half-life is how long it takes for the measured level to halve.
